Among the data in US20260242363A1, “SUBSTITUTED 6-(PYRIMIDIN-4-YL)QUINOLINE COMPOUNDS AS CYCLIN DEPENDENT KINASE INHIBITORS” (BeOne Medicines I GmbH, priority 2023, published 2026) are IC50 values, retold here.

The target of test [1] is CDK4/Cyclin D1 (Homo sapiens, UniProt P11802). In words: CDK4/Cyclin D1 kinase inhibition TR-FRET assay. It is filed as biochemical. The note with it: 1 mM ATP, 0.15 μM Rb (Ser780)-biotin substrate, read-out: CDK4D1 IC50. The procedure: (§1) Compounds disclosed herein were tested for inhibition of CDK4/Cyclin D1 or CDK6/Cyclin D3 kinase in an assay based on the time-resolved fluorescence-resonance energy transfer (TR-FRET) methodology. The assay was carried out in 384-well low volume black plates in a reaction mixture containing CDK4/Cyclin D1 or CDK6/Cyclin D3, 1 mM ATP, 0.15 μM Rb (Ser780)-biotin substrate and 0-10 μM compound in buffer containing 50 mM HEPES pH7.0, 0.02% NaN3, 0.01% BSA, 0.1 mM Orthovanadate, 50 mM MgCl2, 1 mM DTT and 0.005% Tween-20. The kinase was incubated with compound for 60 minutes at room temperature and the reaction was initiated by the addition of ATP and Rb (Ser780)-biotin substrate. After reaction at room temperature for 120 minutes, an equal volume of stop/detection solution was added according to the manufacture's instruction (Cisbio Bioassays). The stop/detection solution contained Streptavidin-XL665 and Anti-pRb (Ser780) mAb-Eu Cryptate in Detection buffer (Cisbio Bioassays). Plates were incubated at room temperature for 60 minutes, and the TR-FRET signals (ex337 nm, em665 nm/620 nm) were recorded on a PHERAstar FSX plate reader (BMG Labtech). The inhibition percentage of CDK4/Cyclin D1 or CDK6/Cyclin D3 kinase activity in presence of increasing concentrations of compounds was calculated based on the ratio of fluorescence at 665 nm to that at 620 nm. The IC50 for each compound was derived from fitting the data to the four-parameter logistic equation by Dotmatics.

Test [2] deals with CDK6/Cyclin D3 (Homo sapiens, UniProt Q00534). Put plainly: CDK6/Cyclin D3 kinase inhibition TR-FRET assay. It is filed as biochemical. The note with it: 1 mM ATP, 0.15 μM Rb (Ser780)-biotin substrate, read-out: CDK6D3 IC50. Here is the method:
as §1

CDK4/Cyclin D1, sequence (P11802 whole entry): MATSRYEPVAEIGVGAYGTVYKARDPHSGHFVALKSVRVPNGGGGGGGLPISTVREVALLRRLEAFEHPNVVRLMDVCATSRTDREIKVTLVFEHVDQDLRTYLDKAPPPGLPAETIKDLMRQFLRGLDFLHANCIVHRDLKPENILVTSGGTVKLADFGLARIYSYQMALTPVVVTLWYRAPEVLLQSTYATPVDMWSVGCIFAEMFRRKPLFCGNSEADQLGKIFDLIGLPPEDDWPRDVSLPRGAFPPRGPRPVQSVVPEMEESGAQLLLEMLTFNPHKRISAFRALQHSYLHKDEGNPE
CDK4/Cyclin D1, sequence (P24385 whole entry partner): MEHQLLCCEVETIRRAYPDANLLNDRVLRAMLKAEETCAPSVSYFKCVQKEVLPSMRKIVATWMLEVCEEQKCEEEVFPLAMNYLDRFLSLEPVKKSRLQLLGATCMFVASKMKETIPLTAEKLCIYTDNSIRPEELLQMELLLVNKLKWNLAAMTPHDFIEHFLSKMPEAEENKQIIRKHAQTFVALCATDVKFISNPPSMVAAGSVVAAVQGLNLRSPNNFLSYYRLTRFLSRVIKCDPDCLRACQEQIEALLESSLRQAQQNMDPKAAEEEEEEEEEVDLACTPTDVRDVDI
CDK6/Cyclin D3, sequence (Q00534 whole entry): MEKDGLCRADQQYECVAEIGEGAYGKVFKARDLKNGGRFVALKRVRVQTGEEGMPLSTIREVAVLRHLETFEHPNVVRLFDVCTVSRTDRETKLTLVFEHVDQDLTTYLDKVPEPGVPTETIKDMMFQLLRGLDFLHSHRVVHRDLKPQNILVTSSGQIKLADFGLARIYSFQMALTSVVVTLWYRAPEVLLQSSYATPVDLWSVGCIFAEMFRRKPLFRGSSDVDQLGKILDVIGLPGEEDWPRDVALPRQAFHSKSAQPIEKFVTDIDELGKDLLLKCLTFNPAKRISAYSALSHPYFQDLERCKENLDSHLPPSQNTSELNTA
CDK6/Cyclin D3, sequence (P30281 whole entry partner): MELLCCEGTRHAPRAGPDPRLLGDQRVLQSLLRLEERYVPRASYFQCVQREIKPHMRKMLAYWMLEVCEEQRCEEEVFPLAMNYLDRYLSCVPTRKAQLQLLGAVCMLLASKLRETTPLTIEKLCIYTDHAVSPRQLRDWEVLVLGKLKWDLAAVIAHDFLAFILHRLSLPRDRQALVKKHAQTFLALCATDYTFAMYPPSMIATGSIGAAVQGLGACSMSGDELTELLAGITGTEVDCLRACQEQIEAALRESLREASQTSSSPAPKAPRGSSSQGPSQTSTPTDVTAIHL

As to `CC(C)c1c(CO)cnc2ccc(-c3nc(N[C@@H]4CCOC[C@@H]4O)ncc3F)cc12` [Example 1, (3R,4R)-4-((5-fluoro-4-(3-(hydroxymethyl)-4-isopropylquinolin-6-yl)pyrimidin-2-yl)amino)tetrahydro-2H-pyran-3-ol], the concentration for half-maximal inhibition (IC50) is 7.9 nM in test [1] and 107 nM in test [2].

Regarding `CC(C)c1c(CN2CCOCC2)cnc2ccc(-c3nc(N[C@@H]4CCOC[C@@H]4O)ncc3F)cc12` [Example 2, (3R,4R)-4-((5-fluoro-4-(4-isopropyl-3-(morpholinomethyl)quinolin-6-yl)pyrimidin-2-yl)amino)tetrahydro-2H-pyran-3-ol], the IC50 in test [1] was 21 nM; in test [2], 456 nM.

`CC(C)c1c(CN[C@@H]2CCCOC2)cnc2ccc(-c3nc(N[C@@H]4CCOC[C@@H]4O)ncc3F)cc12` [Example 3, (3R,4R)-4-((5-fluoro-4-(4-isopropyl-3-((((R)-tetrahydro-2H-pyran-3-yl)amino)methyl)quinolin-6-yl)pyrimidin-2-yl)amino)tetrahydro-2H-pyran-3-ol]: the half-inhibitory concentration (IC50) in test [1] turned out to be 16 nM; in test [2] it was 1100 nM.

For the molecule `CC(C)c1c(CN)cnc2ccc(-c3nc(N[C@@H]4CCOC[C@@H]4O)ncc3F)cc12` [Example 4, (3R,4R)-4-((4-(3-(aminomethyl)-4-isopropylquinolin-6-yl)-5-fluoropyrimidin-2-yl)amino)tetrahydro-2H-pyran-3-ol], the 50% inhibitory concentration (IC50) in test [1] turned out to be 2.6 nM; in test [2], 190 nM.

For the molecule `CC(C)c1c(CN2CC(O)C2)cnc2ccc(-c3nc(N[C@@H]4CCOC[C@@H]4O)ncc3F)cc12` [Example 5, 1-((6-(5-fluoro-2-(((3R,4R)-3-hydroxytetrahydro-2H-pyran-4-yl)amino)pyrimidin-4-yl)-4-isopropylquinolin-3-yl)methyl)azetidin-3-ol], the IC50 was 26 nM in test [1] and 1830 nM in test [2].

Consider `CC(C)c1c(CN2CCC[C@H](C#N)C2)cnc2ccc(-c3nc(N[C@@H]4CCOC[C@@H]4O)ncc3F)cc12` [Example 6, (S)-1-((6-(5-fluoro-2-(((3R,4R)-3-hydroxytetrahydro-2H-pyran-4-yl)amino)pyrimidin-4-yl)-4-isopropylquinolin-3-yl)methyl)piperidine-3-carbonitrile], for which the results for the IC50 in test [1] and in test [2] were 7 nM and 273 nM, respectively.

As for `CC(C)c1c(CN2CCC[C@@H](C#N)C2)cnc2ccc(-c3nc(N[C@@H]4CCOC[C@@H]4O)ncc3F)cc12` [Example 7, (R)-1-((6-(5-fluoro-2-(((3R,4R)-3-hydroxytetrahydro-2H-pyran-4-yl)amino)pyrimidin-4-yl)-4-isopropylquinolin-3-yl)methyl)piperidine-3-carbonitrile], the IC50 in test [1] is 24 nM; in test [2], 544 nM.

With `CC(C)c1c(CN2[C@H](C)COC[C@@H]2C)cnc2ccc(-c3nc(N[C@@H]4CCOC[C@@H]4O)ncc3F)cc12` [Example 8, (3R,4R)-4-((4-(3-(((3R,5S)-3,5-dimethylmorpholino)methyl)-4-isopropylquinolin-6-yl)-5-fluoropyrimidin-2-yl)amino)tetrahydro-2H-pyran-3-ol], the IC50 in test [1] amounted to 21 nM; in test [2] it was 921 nM.

On to `CC(C)c1c(CN2[C@H](C)COC[C@H]2C)cnc2ccc(-c3nc(N[C@@H]4CCOC[C@@H]4O)ncc3F)cc12` [Example 9, (3R,4R)-4-((4-(3-(((3R,5R)-3,5-dimethylmorpholino)methyl)-4-isopropylquinolin-6-yl)-5-fluoropyrimidin-2-yl)amino)tetrahydro-2H-pyran-3-ol], for which the results for the IC50 in test [1] and in test [2] were 22 nM and 532 nM, respectively.

Regarding `CC(C)c1c(CNC2CC2)cnc2ccc(-c3nc(N[C@@H]4CCOC[C@@H]4O)ncc3F)cc12` [Example 10, (3R,4R)-4-((4-(3-((cyclopropylamino)methyl)-4-isopropylquinolin-6-yl)-5-fluoropyrimidin-2-yl)amino)tetrahydro-2H-pyran-3-ol], the 50% inhibitory concentration (IC50) in test [1] was 12 nM; in test [2], 510 nM.

As to `CC(C)c1c(CN[C@H]2CCOC2)cnc2ccc(-c3nc(N[C@@H]4CCOC[C@@H]4O)ncc3F)cc12` [Example 11, (3R,4R)-4-((5-fluoro-4-(4-isopropyl-3-((((S)-tetrahydrofuran-3-yl)amino)methyl)quinolin-6-yl)pyrimidin-2-yl)amino)tetrahydro-2H-pyran-3-ol], the half-inhibitory concentration (IC50) in test [1] came to 16 nM; in test [2] it was 1270 nM.

Consider `CC(C)c1c(C2(O)CCCC2)cnc2ccc(-c3nc(N[C@@H]4CCOC[C@@H]4O)ncc3F)cc12` [Example 12, (3R,4R)-4-((5-fluoro-4-(3-(1-hydroxycyclopentyl)-4-isopropylquinolin-6-yl)pyrimidin-2-yl)amino)tetrahydro-2H-pyran-3-ol], for which the IC50 turned out to be 5.5 nM in test [1] and 300 nM in test [2].

Turning to `CC(C)c1c(CN2[C@H](C)COC[C@@H]2C)cnc2c(F)cc(-c3nc(N[C@@H]4CCOC[C@@H]4O)ncc3F)cc12` [Example 13, (3R,4R)-4-((4-(3-(((3R,5S)-3,5-dimethylmorpholino)methyl)-8-fluoro-4-isopropylquinolin-6-yl)-5-fluoropyrimidin-2-yl)amino)tetrahydro-2H-pyran-3-ol], the IC50 was 7.6 nM in test [1] and 287 nM in test [2].

As to `CC(C)c1c(CNC2CC(F)(F)C2)cnc2c(F)cc(-c3nc(N[C@@H]4CCOC[C@@H]4O)ncc3F)cc12` [Example 14, (3R,4R)-4-((4-(3-(((3,3-difluorocyclobutyl)amino)methyl)-8-fluoro-4-isopropylquinolin-6-yl)-5-fluoropyrimidin-2-yl)amino)tetrahydro-2H-pyran-3-ol], the IC50 amounted to 15 nM in test [1] and 462 nM in test [2].

Turning to `CC(C)c1c(CN[C@@H]2CCCOC2)cnc2c(F)cc(-c3nc(N[C@@H]4CCOC[C@@H]4O)ncc3F)cc12` [Example 15, (3R,4R)-4-((5-fluoro-4-(8-fluoro-4-isopropyl-3-((((R)-tetrahydro-2H-pyran-3-yl)amino)methyl)quinolin-6-yl)pyrimidin-2-yl)amino)tetrahydro-2H-pyran-3-ol], the concentration for half-maximal inhibition (IC50) was 21 nM in test [1] and 702 nM in test [2].

Turning to `CC(C)c1c(C2(O)CCCC2)cnc2c(F)cc(-c3nc(N[C@@H]4CCOC[C@@H]4O)ncc3F)cc12` [Example 16, (3R,4R)-4-((5-fluoro-4-(8-fluoro-3-(1-hydroxycyclopentyl)-4-isopropylquinolin-6-yl)pyrimidin-2-yl)amino)tetrahydro-2H-pyran-3-ol], the IC50 in test [1] came out at 4.4 nM; in test [2], 93 nM.

For the molecule `CC(C)c1c(C(C)(C)O)cnc2c(F)cc(-c3nc(N[C@@H]4CCOC[C@@H]4O)ncc3Cl)cc12` [Example 17, (3R,4R)-4-((5-chloro-4-(8-fluoro-3-(2-hydroxypropan-2-yl)-4-isopropylquinolin-6-yl)pyrimidin-2-yl)amino)tetrahydro-2H-pyran-3-ol], the half-maximal inhibitory concentration (IC50) in test [1] was 9 nM; in test [2] it was 228 nM.

Turning to `CC(C)c1c(C2(O)CCOCC2)cnc2c(F)cc(-c3nc(N[C@@H]4CCOC[C@@H]4O)ncc3Cl)cc12` [Example 18, (3R,4R)-4-((5-chloro-4-(8-fluoro-3-(4-hydroxytetrahydro-2H-pyran-4-yl)-4-isopropylquinolin-6-yl)pyrimidin-2-yl)amino)tetrahydro-2H-pyran-3-ol], the IC50 turned out to be 8.4 nM in test [1] and 273 nM in test [2].

With `CC(C)c1c(CN2[C@H](C)COC[C@@H]2C)cnc2c(F)cc(-c3nc(N[C@@H]4CCOC[C@@H]4O)ncc3Cl)cc12` [Example 21, (3R,4R)-4-((5-chloro-4-(3-(((3R,5S)-3,5-dimethylmorpholino)methyl)-8-fluoro-4-isopropylquinolin-6-yl)pyrimidin-2-yl)amino)tetrahydro-2H-pyran-3-ol], the values for the IC50 in test [1] and in test [2] were 7.9 nM and 409 nM, respectively.
